Among the data in ChEMBL document CHEMBL4007415, “Thieno[3,2-b]pyrrole-5-carboxamides as New Reversible Inhibitors of Histone Lysine Demethylase KDM1A/LSD1. Part 1: High-Throughput Screening and Preliminary Exploration” (J Med Chem, 2017) are IC50 values, retold here.

The test deals with LSD1/CoREST complex (Homo sapiens, UniProt O60341).

Description: Inhibition of recombinant human KDM1A/CoREST complex expressed in Escherichia coli using biotinylated H3K4me1 peptide as substrate preincubated for 20 mins measured after 1 hr by TR-FRET assay

As to `Cn1c(C(=O)Nc2ccccc2)cc2scnc21`, the concentration for half-maximal inhibition (IC50) is greater than 100 µM.
`Cn1c(C(=O)Nc2cccc(Oc3ccncc3)c2)cc2sccc21` had an IC50 of 89.9 µM.
In turn, `Cn1c(C(=O)Nc2ccccc2)cc2occc21` gave an IC50 of 89.5 µM.
Compound `CCn1c(C(=O)Nc2ccccc2)cc2sccc21` registered an IC50 of 9.3 µM.
Regarding `Cc1cc2c(cc(C(=O)Nc3ccccc3)n2C)s1`, the half-inhibitory concentration (IC50) was greater than 100 µM.
In turn, `Cn1c(C(=O)Nc2ccccc2)cc2ncsc21` had an IC50 greater than 100 µM.
The result for `Cn1c(C(=O)Nc2cccc(COc3ccccc3)c2)cc2sccc21` reads greater than 100 µM.
Consider `COc1cccc(NC(=O)c2cc3sccc3n2C)c1`, for which the 50% inhibitory concentration (IC50) came out at 26.5 µM.
Regarding `Cn1c(C(=O)Nc2ccccc2)cc2sccc21`, inhibition was half-maximal at 25.7 µM (IC50).
The compound `Cn1ccc2c1cc(C(=O)Nc1ccccc1)n2C` returned a concentration for half-maximal inhibition (IC50) greater than 100 µM.
`Cn1c(C(=O)Nc2ccccc2)nc2sccc21`: the IC50 was greater than 100 µM.
Regarding `Cn1c(C(=O)Nc2ccccc2)cc2ccsc21`, the IC50 amounted to 38.8 µM.
`Cn1c(C(=O)Nc2ccccc2)cc2sc(F)cc21` displayed an IC50 greater than 100 µM.
For `Cn1c(C(=O)Nc2cccc(OCc3ccncc3)c2)cc2sccc21`, the IC50 came out at 7.2 µM.
Next, `O=C(Nc1ccccc1)c1cc2sccc2n1S(=O)(=O)c1ccccc1`: greater than 100 µM; `NCCn1c(C(=O)Nc2ccccc2)cc2sccc21`: 48.1 µM; `Cn1c(C(=O)Nc2cccc(CO)c2)cc2sccc21`: 52.3 µM.
The compound `Cn1c(C(=O)Nc2cccc(Cl)c2)cc2sccc21` gave a half-maximal inhibitory concentration (IC50) of 18.7 µM.
The compound `Cn1c(C(=O)Nc2ccccn2)cc2sccc21` came in with a concentration for half-maximal inhibition (IC50) greater than 100 µM.
In turn, `Cn1c(C(=O)Nc2ccccc2)cc2sc(I)cc21` gave an IC50 greater than 100 µM.
In turn, `Cn1c(C(=O)Nc2cccc(COc3ccncc3)c2)cc2sccc21` showed an IC50 of 9.4 µM.
For `CSCc1cccc(NC(=O)c2cc3sccc3n2C)c1`, the IC50 is 7.4 µM.
`O=C(Nc1ccccc1)c1cc2sccc2[nH]1` came in with an IC50 greater than 100 µM.
Next, `Cn1c(C(=O)Nc2ccncn2)cc2sccc21`: greater than 100 µM; `CN(C)c1cccc(NC(=O)c2cc3sccc3n2C)c1`: 29.6 µM.
In turn, `Cn1c(C(=O)Nc2cccc(C(N)=O)c2)cc2sccc21` gave an IC50 of 97.3 µM.
Compound `COCc1c(C(=O)Nc2ccccc2)n(C)c2ccsc12` came in with an IC50 greater than 100 µM.
Consider `Cn1c(C(=O)Nc2ncccn2)cc2sccc21`, for which the IC50 was greater than 100 µM.
In the case of `CN(C)Cc1cccc(NC(=O)c2cc3sccc3n2C)c1`, the IC50 amounted to 16.7 µM.
Next, `Cn1c(C(=O)Nc2cccc(Br)c2)cc2sccc21`: greater than 100 µM; `O=C(Nc1ccccc1)c1cc2sccc2n1-c1ccccc1`: greater than 100 µM; `Cn1c(C(=O)Nc2ccncc2)cc2sccc21`: greater than 100 µM.
For the compound `Cn1ncc2cc(C(=O)Nc3ccccc3)n(C)c21`, the IC50 is greater than 100 µM.
`CN1CCC(COc2cccc(NC(=O)c3cc4sccc4n3C)c2)CC1` had an IC50 of 2.2 µM.
Regarding `Cn1c(C(=O)Nc2ccccc2)c(I)c2sccc21`, the IC50 is greater than 100 µM.
For `Cn1c(C(=O)Nc2cccnc2)cc2sccc21`, the IC50 came to 61.5 µM.
As to `CCCn1c(C(=O)Nc2ccccc2)cc2sccc21`, the IC50 was 53.2 µM.
`Cn1c(C(=O)Nc2cccc(COc3ccc(O)cc3)c2)cc2sccc21` gave an IC50 of 25.2 µM.
In the case of `O=C(Nc1ccccc1)c1cc2sccc2s1`, the IC50 is greater than 100 µM.
Next, `Cn1cnc2c1cc(C(=O)Nc1ccccc1)n2C`: greater than 100 µM.
On to `Cn1c(C(=O)Nc2ccccc2)c(I)c2sc(I)cc21`, for which the IC50 was greater than 100 µM.
Turning to `Cc1csc2cc(C(=O)Nc3ccccc3)n(C)c12`, the IC50 was greater than 100 µM.
Compound `Cn1c(C(=O)Nc2ccccc2)cc2sc(Br)cc21` had a half-maximal inhibitory concentration (IC50) greater than 100 µM.
As for `Cn1c(C(=O)Nc2cccc(F)c2)cc2sccc21`, 22.2 µM corresponded to half-maximal inhibition (IC50).
Take `Cn1c(C(=O)Nc2cccc(CN3CCOCC3)c2)cc2sccc21`: the IC50 worked out at 11.1 µM.
The result for `O=C(Nc1ccccc1)c1ccc2sccc2c1` reads greater than 100 µM.
Compound `Cn1c(C(=O)Nc2ccccc2)c(Cl)c2sccc21` returned an IC50 greater than 100 µM.
The result for `CN(C)Cc1cc2c(cc(C(=O)Nc3ccccc3)n2C)s1` reads greater than 100 µM; that for `Cc1sc2cc(C(=O)Nc3ccccc3)n(C)c2c1C`, greater than 100 µM.
In the case of `Cn1cnc2[nH]c(C(=O)Nc3ccccc3)cc21`, the IC50 is greater than 100 µM.
On to `Cc1c(C(=O)Nc2ccccc2)n(C)c2ccsc12`, for which the half-inhibitory concentration (IC50) is greater than 100 µM.
On to `CN1CCN(c2cccc(NC(=O)c3cc4sccc4n3C)c2)CC1`, for which the IC50 was determined as 21.5 µM.
Consider `CN(C)Cc1c(C(=O)Nc2ccccc2)n(C)c2ccsc12`, for which the concentration for half-maximal inhibition (IC50) is greater than 100 µM.

In general, IC50 refers to the concentration that inhibits the measured activity by half. A low value points to inhibition by little substance.
